The values that follow come from patent US10662228B2 (priority 2014, dated 2020).

The test system of the experiment is potassium ion channel current of the DRG neurons. Format: cell-based, SD rats. Conditions: 5 mM.

With `Nc1ccncc1` [4AP, 4-aminopyridine], the Current inhibition rate is reported as 0.338 and the “Current recorded after loading” value turned out to be 0.9766 nA.
